Here are results for 41 compounds from patent US20140128385A1 (NOVARTIS AG, priority 2011, published 2014).

Where a name gives a salt, the structure may show the parent alone.

For the assay, the target named is T1, BACE-2 (Homo sapiens, UniProt Q9Y5Z0).
T1 construct: Recombinant BACE-2 (extracellular domain, expressed in baculovirus and purified using standard methods); made in house
T1 sequence (Q9Y5Z0 63-473 limits assumed): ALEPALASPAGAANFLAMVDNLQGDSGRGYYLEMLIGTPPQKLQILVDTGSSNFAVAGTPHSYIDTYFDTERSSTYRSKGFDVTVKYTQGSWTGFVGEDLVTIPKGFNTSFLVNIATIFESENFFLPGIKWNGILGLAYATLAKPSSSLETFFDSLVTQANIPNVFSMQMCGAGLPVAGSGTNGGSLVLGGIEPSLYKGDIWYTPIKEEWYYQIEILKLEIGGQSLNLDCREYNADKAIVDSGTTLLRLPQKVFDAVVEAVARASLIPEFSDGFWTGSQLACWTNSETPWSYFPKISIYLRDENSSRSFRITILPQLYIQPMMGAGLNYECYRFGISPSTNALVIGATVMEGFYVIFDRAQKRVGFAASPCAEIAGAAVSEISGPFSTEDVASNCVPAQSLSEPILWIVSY
The assay is described as follows: assay for inhibition of BACE-2. The assay is classed as biochemical.
In turn, `CC1(c2cccc(NC(=O)c3cn4ccccc4n3)c2)COCC(N)=N1` (centres unmarked) [Example 8, Imidazo[1,2-a]pyridine-2-carboxylic acid [3-(5-amino-3-methyl-3,6-dihydro-2H-[1,4]oxazin-3-yl)-phenyl]-amide hydrochloride] gave a 50% inhibitory concentration (IC50) of 7230 nM.

Consider `Cc1cc(Cl)cnc1C(=O)Nc1ccc(F)c([C@]2(CF)COCC(N)=N2)c1` [Example 92], for which the IC50 was 0.4 nM.

The compound `CN1CC(N)=NC(C)(c2cccc(NC(=O)c3ccc(Br)cn3)c2)C1=O` (centres unmarked) [Example 188, 5-Bromo-pyridine-2-carboxylic acid [3-(6-amino-2,4-dimethyl-3-oxo-2,3,4,5-tetrahydro-pyrazin-2-yl)-phenyl]-amide] had an IC50 of 798 nM.

`NC1=N[C@@](c2cc(NC(=O)c3cn4ccccc4n3)ccc2F)(C(F)F)COC1` [Example 129] came in with an IC50 of 1630 nM.

`NC1=NC(CF)(c2cccc(NC(=O)c3ccc(Cl)cn3)n2)COC1` (centres unmarked) [Example 259, 5-{6-[(5-Chloro-pyridine-2-carbonyl)-amino]-pyridin-2-yl}-5-fluoromethyl-5,6-dihydro-2H-[1,4]oxazin-3-yl-ammonium trifluoro acetate] had an IC50 of 1390 nM.

`Cc1cc(C#N)cnc1C(=O)Nc1ccc(F)c([C@]2(CF)COC(CF)(CF)C(N)=N2)c1` [Example 256, 5-Cyano-3-methyl-pyridine-2-carboxylic acid [3-((R)-5-amino-3,6,6-tris-fluoromethyl-3,6-dihydro-2H-[1,4]oxazin-3-yl)-4-fluoro-phenyl]-amide] returned an IC50 of 18 nM.

As to `NC1=N[C@@](c2cc(NC(=O)c3ncc(=O)[nH]c3N)ccc2F)(C(F)F)CNC1` [Example 214, 3-Amino-5-oxo-4,5-dihydro-pyrazine-2-carboxylic acid [3-((R)-6-amino-2-difluoromethyl-2,3,4,5-tetrahydro-pyrazin-2-yl)-4-fluoro-phenyl]-amide], half-maximal inhibition (IC50) was put at 757 nM. Against the preceding compound, the IC50 is about 42-fold higher.

With `CC1(c2cccc(NC(=O)c3cnc(O)cn3)c2)COCC(N)=N1` (centres unmarked) [Example 19], 3180 nM corresponded to half-maximal inhibition (IC50).

For `COc1cc(Br)cnc1C(=O)Nc1ccc(F)c(C2(C)N=C(N)COCC2(F)F)c1` (centres unmarked) [Example 155, 5-Bromo-3-methoxy-pyridine-2-carboxylic acid [3-(3-amino-6,6 difluoro-5-methyl-2,5,6,7 tetrahydro-[1,4]oxazepin-5-yl)-4 fluoro-phenyl]-amide], the IC50 worked out at 43 nM.

In turn, `NC1=NC(c2cccc(NC(=O)c3ccc(O)nn3)c2)(C(F)F)COC1` (centres unmarked) [Example 103] had a 50% inhibitory concentration (IC50) greater than 10000 nM.

For the compound `Cc1nc(C(=O)Nc2cccc(C3(C(F)F)COCC(N)=N3)c2)co1` (centres unmarked) [Example 104], the IC50 was 309 nM. In other words, the sub-micromolar range.

`Cc1c(C(=O)Nc2ccc(F)c([C@]3(C(F)F)COCC(N)=N3)c2)oc2ccc(Br)cc12` [Example 114] displayed an IC50 of 116 nM. This IC50 lies about 2.7-fold lower than the previous one.

`NC1=NC(c2cc(NC(=O)c3ncc(Br)cc3O)c(F)cc2F)(C(F)F)COC1` (centres unmarked) [Example 84] yielded an IC50 of 3440 nM. Compared with the last compound, the IC50 is about 30-fold higher.

Turning to `NC1=N[C@@](c2cc(NC(=O)c3ccc4c(Cl)c[nH]c4n3)ccc2F)(C(F)F)COC1` [Example 219], the half-maximal inhibitory concentration (IC50) came out at 117 nM.

On to `C[C@@]1(c2cc(NC(=O)c3ncc(C(F)(F)F)cc3Cl)ccc2F)CO[C@@](C)(C(F)(F)F)C(N)=N1` [Example 248, 3-Chloro-5-trifluoromethyl-pyridine-2-carboxylic acid [3-((3R,6R)-5-amino-3,6-dimethyl-6-trifluoromethyl-3,6-dihydro-2H-[1,4]oxazin-3-yl)-4-fluoro-phenyl]-amide], for which the IC50 was 22 nM.

`COCCN1CC(C)(c2cc(NC(=O)c3ncc(Cl)cc3Cl)ccc2F)N=C(N)C1=O` (centres unmarked) [Example 195, 3,5-Dichloro-pyridine-2-carboxylic acid {3-[6-amino-4-(2-methoxy-ethyl)-2-methyl-5-oxo-2,3,4,5-tetrahydro-pyrazin-2-yl]-4-fluoro-phenyl}-amide hydrochloride] returned a concentration for half-maximal inhibition (IC50) of 6 nM.

The compound `CCOc1ccc(C(=O)Nc2ccc(F)c([C@]3(C(F)F)COCC(N)=N3)c2)nc1` [Example 120] registered a half-maximal inhibitory concentration (IC50) of 1060 nM.

Compound `NC1=N[C@@](c2cc(NC(=O)c3ncc(Br)cc3N)ccc2F)(C(F)F)COC1` [Example 165, 3-Amino-5-bromo-pyridine-2-carboxylic acid [3-((R)-5-amino-3-difluoromethyl-3,6-dihydro-2H-[1,4]oxazin-3-yl)-4-fluoro-phenyl]-amide hydrochloride] had an IC50 of 5 nM.

In the case of `Cc1cc(C#N)cnc1C(=O)Nc1ccc(F)c([C@]2(C)COC(CF)(CF)C(N)=N2)c1` (single isomer, unassigned) [Example 252], the half-inhibitory concentration (IC50) was 33 nM.

Take `COc1cc(Br)cnc1C(=O)Nc1cc(C2(C(F)F)COCC(N)=N2)c(F)cc1F` (centres unmarked) [Example 83]: the 50% inhibitory concentration (IC50) came to 5880 nM.

`COCCOc1ccc(C(=O)Nc2ccc(F)c([C@]3(C(F)F)COCC(N)=N3)c2)nc1` [Example 180, 5-(2-Methoxy-ethoxy)-pyridine-2-carboxylic acid [3-((R)-5-amino-3-difluoromethyl-3,6-dihydro-2H-[1,4]oxazin-3-yl)-4-fluoro-phenyl]-amide hydrochloride] gave an IC50 of 1650 nM.

For `Cc1ccc(C(=O)Nc2ccc(F)c([C@]3(C(F)F)COCC(N)=N3)c2)nc1` [Example 143], the half-inhibitory concentration (IC50) worked out at 66 nM. This IC50 lies about 25-fold lower than the previous one.

As for `N#Cc1ccc(C(=O)Nc2ccc(F)c(C3(CF)COCC(N)=N3)c2)nc1` (centres unmarked) [Example 89], the IC50 was 152 nM.

In the case of `Cc1nc(C(=O)Nc2cccc(C3(C)COCC(N)=N3)c2)c(C)o1` (centres unmarked) [Example 10, 2,5-Dimethyl-oxazole-4-carboxylic acid [3-(5-amino-3-methyl-3,6-dihydro-2H-[1,4]oxazin-3-yl)-phenyl]-amide hydrochloride], the IC50 is 289 nM.

In turn, `COC(=O)N1CC(N)=NC(c2cc(NC(=O)c3ccc(C#N)cn3)ccc2F)(C(F)F)C1` (centres unmarked) [Example 205, 5-Amino-3-{5-[(5-cyano-pyridine-2-carbonyl)-amino]-2-fluoro-phenyl}-3-difluoromethyl-3,6-dihydro-2H-pyrazine-1-carboxylic acid methyl ester] came in with a 50% inhibitory concentration (IC50) of 104 nM.

`Cc1cc(C#N)cnc1C(=O)Nc1ccc(F)c([C@]2(C(F)F)COCC(N)=N2)c1` [Example 144]: 51 nM corresponded to half-maximal inhibition (IC50).

Turning to `Cc1ccc(C(=O)Nc2cccc(C3(C)COCC(N)=N3)c2)nc1` (centres unmarked) [Example 27, 5-Methyl-pyridine-2-carboxylic acid [3-(5-amino-3-methyl-3,6-dihydro-2H-[1,4]oxazin-3-yl)-phenyl]-amide hydrochloride], it took 374 nM to reach half-maximal inhibition (IC50).

For the compound `NC1=NC(CF)(c2cc(NC(=O)c3ccc(Cl)cn3)ccc2F)COC1` (centres unmarked) [Example 87], the concentration for half-maximal inhibition (IC50) amounted to 25 nM.

Regarding `N#Cc1cnc(C(=O)Nc2ccc(F)c([C@]3(C(F)F)COCC(N)=N3)c2)c(Cl)c1` [Example 216], inhibition was half-maximal at 61 nM (IC50).

The compound `CC(C)Oc1cnc(C(=O)Nc2ccc(F)c([C@]3(C(F)F)COCC(N)=N3)c2)cn1` [Example 170, 5-Isopropoxy-pyrazine-2-carboxylic acid [3-((R)-5-amino-3-difluoromethyl-3,6-dihydro-2H-[1,4]oxazin-3-yl)-4-fluoro-phenyl]-amide] had a half-maximal inhibitory concentration (IC50) of 2710 nM.

`CC1(C)OCC(c2cc(NC(=O)c3ccc(Br)cn3)ccc2F)(C(F)F)N=C1N` (centres unmarked) [Example 80] displayed an IC50 of 64 nM.

On to `C[C@H]1OC[C@](c2cc(NC(=O)c3ccc(C#N)cn3)ccc2F)(C(F)F)N=C1N` (relative stereo) [Example 75, 5-Cyano-pyridine-2-carboxylic acid [3-((3R*,6R*)-5-amino-3-difluoromethyl-6-methyl-3,6-dihydro-2H-[1,4]oxazin-3-yl)-4-fluoro-phenyl]-amide hydrochloride], for which half-maximal inhibition (IC50) was put at 355 nM. Compared with the last compound, the IC50 is about 5.5-fold higher.

Take `NC1=N[C@@](c2cc(NC(=O)c3cnc(C(F)F)cn3)ccc2F)(C(F)F)COC1` [Example 122]: the midpoint of inhibition, the IC50, lay at 514 nM.

As to `C[C@@]1(c2cc(NC(=O)c3ccc(Br)cn3)ccc2F)CO[C@@](C)(C(F)(F)F)C(N)=N1` [Example 68], half-maximal inhibition (IC50) was put at 3 nM. This IC50 lies about 170-fold lower than the previous one.

Compound `Cc1nc(C(=O)Nc2ccc(F)c([C@]3(C(F)F)COCC(N)=N3)c2)c(C)o1` [Example 128] displayed a half-maximal inhibitory concentration (IC50) of 95 nM.

Regarding `C[C@@]1(c2cc(NC(=O)c3ncc(C(F)F)cc3Cl)ccc2F)CO[C@@](C)(C(F)(F)F)C(N)=N1` [Example 246, 3-Chloro-5-difluormethyl-pyridine-2-carboxylic acid [3-((3R,6R)-5-amino-3,6-dimethyl-6-trifluoromethyl-3,6-dihydro-2H-[1,4]oxazin-3-yl)-4-fluoro-phenyl]-amide-amide], it took 8 nM to reach half-maximal inhibition (IC50).

`COc1cc(Br)cnc1C(=O)Nc1ccc(F)c([C@]2(C(F)F)COCC(N)=N2)c1` [Example 130] returned a concentration for half-maximal inhibition (IC50) of 42 nM.

Turning to `Cc1nc(C(=O)Nc2ccc(F)c([C@]3(C(F)F)COCC(N)=N3)c2)co1` [Example 127], the IC50 is 35 nM.

The compound `CCc1nc(C(=O)Nc2cccc(C3(C(F)F)COCC(N)=N3)c2)co1` (centres unmarked) [Example 105] displayed a concentration for half-maximal inhibition (IC50) of 1020 nM.

In the case of `Cc1nc(C(=O)Nc2ccc(F)c([C@]3(C(F)F)COCC(N)=N3)c2)c(N)o1` [Example 168, 5-Amino-2-methyl-oxazole-4-carboxylic acid [3-((R)-5-amino-3-difluoromethyl-3,6-dihydro-2H-[1,4]oxazin-3-yl)-4-fluoro-phenyl]-amide hydrochloride], the midpoint of inhibition, the IC50, lay at 35 nM.

`CC1(c2cccc(NC(=O)c3ccc(Br)cn3)c2)COCC(N)=N1` (centres unmarked) [Example 2, 5-Bromo-pyridine-2-carboxylic acid [3-(5-amino-3-methyl-3,6-dihydro-2H-[1,4]oxazin-3-yl)-phenyl]-amide hydrochloride]: the midpoint of inhibition, the IC50, lay at 87 nM. This IC50 lies about 2.5-fold higher than the previous one.

In general, IC50 refers to the concentration that inhibits the measured activity by half.
